From patent publication US20100196355A1, “Immunophilin Ligands and Methods for Modulating Immunophilin and Calcium Channel Activity” (Wyeth, priority 2007, published 2010)
Like-named read-outs stand apart in the source and are kept apart here.

What was measured:
Human CD4+ T cells = experiment: Immunosuppression assay: IL-2 stimulated CD4+ T-cell proliferation; assay type: cell-based; settings: up to 1 μM
Description: Human CD4^+ T cells were purified by negative selection from peripheral blood lymphocytes using RosetteSep as per manufacture's instructions (StemCell Technologies, Inc. Vancouver, British Columbia). Tosyl-activated magnetic microspheres (Dynal, Great Neck, N.Y.) were coated with anti-CD3 Ab (1 μg/10^7 microspheres), and anti-CD28Ab ([…]) as described in Blair et al. J. Immunol., 160:12, 1998. […] Protein-coated microspheres were added to purified CD4+T cells (2×10^6cells/mL, ratio 1 bead: 1 cell) and activated for 72 hours in RPMI, 10% fetal calf serum, 2 mM glutamine media. Cells were harvested, washed, and cultured overnight in fresh media and re-stimulated with IL-2 as described in Bennett et al., J. Immunol. 170:711, 2003. […] Seventy-two hours after culture re-stimulation, plates were pulsed with 1 μCi/well tritiated thymidine and incubated for a 6-16 hour period.

His6-tagged FKBP52 = experiment: [3H]-FK506 binding on Ni-chelated FLASH plate; parameters: species or system human; settings: for binding selectivity for FKBP52 versus FKBP12, higher than that of rapamycin: relative to rapamycin
Description: Reactions were carried out in triplicate at 25° C. for 30 min. Kd were calculated using methods described by Carreras (Anal. Biochem. 298, 57-61 (2001)).

CACNB1 = experiment: Affinity chromatography on Compound 2 matrix (SDS-PAGE); assay type: binding, human; settings: protein retained on compound beads vs blank beads
Source text: (§1) The His6-CACNB1: […] were generated from pDEST17-CACNB1 using QuikChange site-directed mutagenesis kit (Stratagene, LaJolla, Calif.). The His6 tagged protein was purified on a Ni-NTA column (Qiagen, Valencia, Calif.). […] J. Biol. Chem. 281, 14961-14970 (2006).

[1] = system: transient mid-cerebral artery occlusion model for ischemic stroke; settings: cited from earlier work
[2] = system: cultured rat cortical neurons; experiment: Neuronal survival assay (neurofilament ELISA); assay type: cell-based; settings: cultured rat cortical neurons
Description: Cultures were fixed for 30 min with 4% paraformaldehyde at 37° C. Nonspecific binding was blocked by incubating with PBS containing 0.3% Triton X-100 and 5% fetal bovine serum (FBS) for 45 min. Cultures were then incubated overnight at 4° C. with an anti-neurofilament (200 kD) monoclonal antibody (1:1000, clone RT-97, Chemicon, Temecula, Calif.). After washing, a peroxidase-conjugated secondary antibody (1:1000, Vector Labs, Burlingame, Calif.) was applied for 2 h. After three washes, the peroxidase substrate K-BlueMax (Neogen, Lexington, Ky.; Young et al., 1999) was added to the cultures and incubated for 10 min on an orbital shaker. The peroxidase substrate is highly soluble in the K-BlueMax solution. Optical density is then readily measured using a Molecular Devices Spectramax Plus colorimetric plate reader at 650
(§2) Briefly, cortical neuron cultures were prepared from embryonic day 15 (E15) rat embryos (Sprague-Dawley, Charles River Laboratories, Wilmington, Mass.). The embryos were collected, their brains were removed, and the cortices were dissected out in ice-cold phosphate-buffered saline (PBS) without Ca^2+ and Mg^2+. Dissected pieces of cortical tissue were pooled together and transferred to an enzymatic dissociation media containing 20 IU/ml papain in Earle's balanced salt solution (Worthington Biochemical, Freehold, N.J.) and incubated for 30 min at 37° C. After enzymatic dissociation, the papain solution was aspirated and the tissue mechanically triturated with a fire-polished Pasteur pipette in complete media [Neurobasal Medium with B-27 supplement (Gibco, Grand Island, N.Y.), 100 IU/ml penicillin, 100 μg/ml streptomycin, 3.3 μg/ml aphidicolin, 0.5 mM glutamate] containing 2,000 IU/ml DNase and 10-mg/ml ovomucoid protease inhibitor.

cortical neurons = experiment: Neurite outgrowth in cortical neurons; assay type: cell-based, rat
Description: Cortical neurons were fixed using 2% paraformaldehyde for 5 min followed by 4% paraformaldehyde for 5 min. Cells were incubated in blocking solution (0.2% Triton-X+1.5% normal goat serum in PBS) followed by primary (anti-neuronal class III β-tubulin (TUJ1) (Covance Innovative Antibodies, Berkeley, Calif.) and secondary antibody (Alexa Fluor 488 goat anti-mouse) (Molecular Probes, Carlsbad, Calif.). Each step was performed at room temperature for 1 hr. Total neurite outgrowth for each condition was analyzed using the Neuronal Profiling Bioapplication on an ArrayScan HCS Reader (Cellomics, Pittsburgh, Pa.).
as §2

F-11 cells = experiment: Neurite outgrowth of F-11 cells (neurofilament ELISA); assay type: cell-based, rat and mouse hybrid
Description: Cells were fixed with 4% paraformaldehyde for 30 min at 37° C. Nonspecific binding was blocked by incubating with PBS containing 0.3% Triton X-100 and 5% fetal bovine serum (FBS) for 45 min. […] After washing, a peroxidase-conjugated anti-mouse secondary antibody (1:1000) was applied for 2 h. After three washes, the peroxidase substrate K-BlueMax was added to the cultures and incubated for 10 min. Optical density was determined at 650 nm.

His6-CACNB1:TGG548TAA = target: T1, His6-CACNB1:TGG548TAA (Homo sapiens, UniProt Q02641); experiment: Protein fluorescent quenching; assay type: binding; settings: compound 1 μM, protein 0-8 μM
T1 construct: His6 (N); made in house
T1 sequence (Q02641 1-547 limits assumed): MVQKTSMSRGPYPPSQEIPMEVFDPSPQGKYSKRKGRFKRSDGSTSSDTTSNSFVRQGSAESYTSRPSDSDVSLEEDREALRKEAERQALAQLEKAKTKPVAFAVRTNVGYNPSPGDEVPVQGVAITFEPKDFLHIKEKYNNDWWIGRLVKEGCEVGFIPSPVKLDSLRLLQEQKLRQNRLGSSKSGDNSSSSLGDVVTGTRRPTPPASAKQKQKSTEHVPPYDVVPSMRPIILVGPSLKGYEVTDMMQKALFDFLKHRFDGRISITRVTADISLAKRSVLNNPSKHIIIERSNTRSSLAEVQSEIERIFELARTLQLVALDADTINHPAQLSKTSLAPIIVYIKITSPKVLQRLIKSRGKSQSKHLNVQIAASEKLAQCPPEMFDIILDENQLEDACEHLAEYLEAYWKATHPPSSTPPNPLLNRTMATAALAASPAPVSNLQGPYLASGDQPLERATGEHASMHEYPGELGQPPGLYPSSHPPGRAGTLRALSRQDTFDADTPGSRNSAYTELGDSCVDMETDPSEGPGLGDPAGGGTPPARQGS
Source text: as §1

[3] = target: T2, FKBP52-rapamycin analogue I-Ca2+ channel β1 subunit complex (Mus musculus, UniProt P30416+Q8R3Z5); experiment: Co-immunoprecipitation of complex from F11 cell lysate; assay type: binding, rat and mouse hybrid
T2 construct: endogenous in cells; host or cells: F11 cell lysate
T2 sequence (P30416 whole entry): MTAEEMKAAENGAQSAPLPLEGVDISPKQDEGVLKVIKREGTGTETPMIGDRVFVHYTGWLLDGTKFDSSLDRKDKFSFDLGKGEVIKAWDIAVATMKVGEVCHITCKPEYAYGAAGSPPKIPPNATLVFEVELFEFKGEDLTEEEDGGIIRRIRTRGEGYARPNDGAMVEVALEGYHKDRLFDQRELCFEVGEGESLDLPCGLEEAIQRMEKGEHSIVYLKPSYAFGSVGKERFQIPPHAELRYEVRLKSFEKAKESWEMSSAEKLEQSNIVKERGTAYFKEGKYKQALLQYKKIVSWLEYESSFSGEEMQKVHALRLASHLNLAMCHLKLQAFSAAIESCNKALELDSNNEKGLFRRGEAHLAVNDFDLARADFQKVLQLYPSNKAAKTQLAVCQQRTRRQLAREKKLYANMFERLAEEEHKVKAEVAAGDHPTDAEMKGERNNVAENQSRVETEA
T2 sequence (Q8R3Z5 1-479 isoform Q8R3Z5-3): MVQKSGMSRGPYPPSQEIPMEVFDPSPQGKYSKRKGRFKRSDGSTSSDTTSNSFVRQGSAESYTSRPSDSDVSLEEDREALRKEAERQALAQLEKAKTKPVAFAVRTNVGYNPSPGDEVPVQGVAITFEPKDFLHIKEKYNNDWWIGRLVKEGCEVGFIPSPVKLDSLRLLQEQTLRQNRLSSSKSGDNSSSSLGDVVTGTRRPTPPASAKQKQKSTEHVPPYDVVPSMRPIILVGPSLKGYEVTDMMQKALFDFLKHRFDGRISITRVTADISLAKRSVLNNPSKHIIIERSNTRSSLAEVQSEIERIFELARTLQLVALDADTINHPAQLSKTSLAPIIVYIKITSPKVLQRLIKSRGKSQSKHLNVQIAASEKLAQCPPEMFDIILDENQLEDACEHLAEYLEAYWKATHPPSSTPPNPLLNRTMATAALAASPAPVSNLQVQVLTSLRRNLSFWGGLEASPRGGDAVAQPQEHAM
Description: Anti-FKBP52 antibody was added at 1:200 dilution to each aliquot and incubated at 4° C. for 5 h. Protein A beads ([…]) were then added to precipitate the anti-FKBP52-antibody-associated complex. The proteins immunoprecipitated on the beads were washed with PBS buffer, separated on 4-20% SDS-PAGE gel, transferred to PVDF, and immunoblotted with anti-Ca^2+ channel β1 subunit antibody (1:500 dilution) to detect the β1 subunit.

[4] = system: Ca2+ channel in F-11 cells; experiment: Whole-cell patch clamp recording of Ca2+ currents in F-11 cells; assay type: cell-based, rat and mouse hybrid
Description: The whole-cell configuration of the patch-clamp technique was used to record calcium currents from the cells at room temperature using an EPC-9 amplifier (HEKA, Instrutech Corp.) with the acquisition and analysis program Pulse-PulseFit from HEKA (Lambrecht, Germany). Electrodes were fabricated using a P-87 puller (Sutter Instrument). […] The standard bath recording solution is Ca^2+ and Mg^2+ free HBSS (pH 7.4) containing 10 mM HEPES, 10 mM dextrose, and 4 mM BaCl2. Currents were filtered at 3 kHz, and the inward Ca^2+ currents were recorded from cells held at −90 mV with 10 mV depolarizing steps from −80 mV to 60 mV for 50 ms.

Structure (SMILES) | inhibition of IL-2 stimulated CD4+ T-cell proliferation (Human CD4+ T cells) | Kd(FKBP12)/Kd(FKBP52) (His6-tagged FKBP52) | binding selectivity for FKBP52 versus FKBP12, higher than that of rapamycin (His6-tagged FKBP52) | binding selectivity for FKBP52 versus FKBP12, higher than that of rapamycin (His6-tagged FKBP52; listed as rapamycin analogue II) | binding to CACNB1 (CACNB1) | reduction of infarct volume ([1]; 10 mg/kg) | reduction of infarct volume ([1]; 30 mg/kg) | neuronal survival, neurofilament ELISA [2] | neurite outgrowth in cortical neurons (cortical neurons) | neurite outgrowth in F-11 cells (F-11 cells) | neurofilament content, higher than 50 μM or no compound control (F-11 cells; 5 μM, 96 hrs) | protein fluorescent quenching (His6-CACNB1:TGG548TAA) | Ca2+ channel β1 subunit co-immunoprecipitated with FKBP52 ([3]; 5 μM) | Ca2+ channel β1 subunit co-immunoprecipitated with FKBP52 ([3]; 50 μM) | Ca2+ current density ([4]; 5 μM in the bath for 2 hrs) | decrease of Ca2+ current density vs vehicle ([4]; 5 μM in the bath for 2 hrs) | whole-cell Ca2+ currents, short bath application ([4]; 10 min application) | reduction of Ca2+ current ([4]; internal application 10 μM, within 10 min, cells responding to BAY-K5552 (L-type)) | reduction of Ca2+ current ([4]; internal application, cells responding to ωCTX MVIIA (N-type))
CO[C@H]1C[C@@H]2CC[C@@H](C)[C@@](O)(O2)C(=O)C(=O)N2CCCCC2C(=O)O[C@H]([C@H](C)C[C@@H]2CC[C@@H](O)[C@H](OC)C2)CC(=O)[C@H](C)/C=C(\C)[C@@H](O)[C@@H](OC)C(=O)[C@H](C)C[C@H](C)C2CC[C@H](/C=C/1C)ON2c1ccccc1 (stereo partly shown) [Rapamycin analogue II, 9,27-dihydroxy-3-{2-[4-hydroxy-3-methoxycyclohexyl]-1-methylethyl}-10,21-dimethoxy-6,8,12,14,20,26-hexamethyl-37-phenyl-4,9,10,12,13,14,15,16,17,18,21,22,23,24,25,26,27,32,33,34,34a-henicosahydro-3H-23,27-epoxy-18,15-(epoxyimino)pyrido[2,1-c][1,4]oxazacyclohentriacontine-1,5,11,28,29(6H, 31H)-pentone] | no detectable inhibition | 229 | 687 fold | at least 600 fold | binds | 24% | 23% | – | – | – | – | – | – | – | – | – | – | – | –
CO[C@H]1C[C@@H]2CC[C@@H](C)[C@@](O)(O2)C(=O)C(=O)N2CCCCC2C(=O)O[C@H]([C@H](C)C[C@@H]2CC[C@@H](O)[C@H](OC)C2)CC(=O)[C@H](C)/C=C(\C)[C@@H](O)[C@@H](OC)C(=O)[C@H](C)C[C@H](C)C2C=C[C@H](/C=C/1C)ON2c1ccccc1 (stereo partly shown) [Rapamycin analogue I, 9,27-dihydroxy-3-{2-[4-hydroxy-3-methoxycyclohexyl]-1-methylethyl}-10,21-dimethoxy-6,8,12,14,20,26-hexamethyl-37-phenyl-4,9,10,12,13,14,15,18,21,22,23,24,25,26,27,32,33,34,34a-nonadecahydro-3H-23,27-epoxy-18,15-(epoxyimino)pyrido[2,1-c][1,4]oxazacyclohentriacontine-1,5,11,28,29(6H, 31H)-pentone] | – | – | – | – | – | – | – | promote neuronal survival | promote neurite outgrowth | promote neurite outgrowth | 4-5 fold | linear dose response curve | large amount | reduced the amount of precipitated β1 subunit | 3.2+/−0.3 pA/pF | 49% | not affected | 46+/−1.8% | No significant current reduction
